A short description of this data set: Bioequivalence study: PK of wet and dry granulated tablets in a dog model. The data set is classed as in vivo. Conditions: fed state with 50 ml high-fat meal substitute. Here is the method: A study was conducted to compare conventional tablet dosage forms. The goal of the study was to assess the in vivo performance of various prototypes of conventional tablet dosage forms (wet and dry granulated tablets) in a dog model.
The following five formulations were tested: […]
1. Phase 2 Clinical (dry granulated (DG)) tablet 2×200 mg.
2. Wet granulated (WG) Vitamin E TPGS/poloxamer tablet: 50% w/w Compound I+4.67% w/w Vitamin E TPGS+4% w/w poloxamer+14.33% w/w microcrystalline cellulose+15% lactose monohydrate+11.5% w/w croscarmellose sodium+0.5% w/w magnesium stearate; 2×200 mg (Corresponds to the formulation shown above in Table 1).
3. WG poloxamer tablet: 50% w/w Compound I+2% w/w polyvinyl pyrrolidone+4% w/w poloxamer+16% microcrystalline cellulose+16% w/w lactose monohydrate+11.5% w/w croscarmellose sodium+0.5% w/w magnesium stearate; 2×200 mg (Corresponds to the formulation shown above in Table 5).
4. Amorphous API tablet: 50% w/w Compound I+41.25% w/w microcrystalline cellulose+5% w/w croscarmellose sodium+2% w/w silicon dioxide+1% w/w sodium lauryl sulphate+0.75% w/w magnesium stearate; 2×200 mg.
5. Solution Formulation: Polyethylene glycol 400:EtOH: polysorbate 80 (50:35:15), 20 mg/mL.
The protocol used was as follows:
[…] For food-effect studies in the fed state, dogs were given 50 ml high-fat meal substitute instead of water.

Molecules are shown by their SMILES.

As for `C=C[C@@H]1C[C@]1(NC(=O)[C@@H]1C[C@@H](Oc2ncc(OC)c3ccc(Cl)cc23)CN1C(=O)[C@@H](NC(=O)OC(C)(C)C)C(C)(C)C)C(=O)NS(=O)(=O)C1CC1` [Compound I, 1,1-dimethylethyl[(1S)-1-{[(2S,4R)-4-(7-chloro-4methoxyisoquinolin-1-yloxy)-2-({(1R,2S)-1-[(cyclopropylsulfonyl)carbamoyl]-2-ethenylcyclopropyl}carbamoyl)pyrrolidin-1-yl]carbonyl}-2,2-dimethylpropyl]carbamate], the food effect result was “significant positive food effect”.
